Experimental findings from publication PMC4994278, “Characterization of a glucose-tolerant β-glucosidase from Anoxybacillus sp. DT3-1” (Biotechnology for Biofuels, 2016) are described below.

The target in the assay is T1, DT-Bgl (Anoxybacillus gonensis, UniProt M5QUM2).
T1 construct: full-length ORF, 453 residues (no signal peptide), pET-28a BamHI/XhoI, Ni-NTA purified (His tag, removal not mentioned), E. coli BL21(DE3), 53 kDa on SDS-PAGE
In words: HPLC of cellobiose hydrolysis with added glucose. The note with it: 400000 µM; substrate cellobiose (1% w/v in substrate assay), 100 mM glycine-NaOH pH 8.5, 60 °C; product inhibition. The format is biochemical.

Consider `OC[C@H]1OC(O)[C@H](O)[C@@H](O)[C@@H]1O` (stereo partly shown) [glucose], for which the “% relative activity in 0.4 M glucose” value came out at 54%.
